Values quoted from earlier work in article PMC11674187, “Inhibitory Effects of Cenobamate on Multiple Human Cardiac Ion Channels and Possible Arrhythmogenic Consequences” (Biomolecules, 2024).

How the values were obtained:
[1] = tested on: human ventricular cardiomyocyte electrophysiology model; parameters: method as in ref [18] Dutta et al., 2017; settings: 12-compound CiPA training set; ref [18] Dutta et al., 2017; cited from earlier work
[2] = tested on: persistent INa; parameters: method as in ref [5] p. 8; settings: other antiseizure drugs; ref [5] p. 8; cited from earlier work
[3] = target: Nav1.5 (Homo sapiens, UniProt Q14524); parameters: method as in PMID 34785211, PMID 33620150; settings: PT 35–37 °C vs. room temperature; ref [11],[40]; cited from earlier work
Chain of Nav1.5 (Q14524 whole entry): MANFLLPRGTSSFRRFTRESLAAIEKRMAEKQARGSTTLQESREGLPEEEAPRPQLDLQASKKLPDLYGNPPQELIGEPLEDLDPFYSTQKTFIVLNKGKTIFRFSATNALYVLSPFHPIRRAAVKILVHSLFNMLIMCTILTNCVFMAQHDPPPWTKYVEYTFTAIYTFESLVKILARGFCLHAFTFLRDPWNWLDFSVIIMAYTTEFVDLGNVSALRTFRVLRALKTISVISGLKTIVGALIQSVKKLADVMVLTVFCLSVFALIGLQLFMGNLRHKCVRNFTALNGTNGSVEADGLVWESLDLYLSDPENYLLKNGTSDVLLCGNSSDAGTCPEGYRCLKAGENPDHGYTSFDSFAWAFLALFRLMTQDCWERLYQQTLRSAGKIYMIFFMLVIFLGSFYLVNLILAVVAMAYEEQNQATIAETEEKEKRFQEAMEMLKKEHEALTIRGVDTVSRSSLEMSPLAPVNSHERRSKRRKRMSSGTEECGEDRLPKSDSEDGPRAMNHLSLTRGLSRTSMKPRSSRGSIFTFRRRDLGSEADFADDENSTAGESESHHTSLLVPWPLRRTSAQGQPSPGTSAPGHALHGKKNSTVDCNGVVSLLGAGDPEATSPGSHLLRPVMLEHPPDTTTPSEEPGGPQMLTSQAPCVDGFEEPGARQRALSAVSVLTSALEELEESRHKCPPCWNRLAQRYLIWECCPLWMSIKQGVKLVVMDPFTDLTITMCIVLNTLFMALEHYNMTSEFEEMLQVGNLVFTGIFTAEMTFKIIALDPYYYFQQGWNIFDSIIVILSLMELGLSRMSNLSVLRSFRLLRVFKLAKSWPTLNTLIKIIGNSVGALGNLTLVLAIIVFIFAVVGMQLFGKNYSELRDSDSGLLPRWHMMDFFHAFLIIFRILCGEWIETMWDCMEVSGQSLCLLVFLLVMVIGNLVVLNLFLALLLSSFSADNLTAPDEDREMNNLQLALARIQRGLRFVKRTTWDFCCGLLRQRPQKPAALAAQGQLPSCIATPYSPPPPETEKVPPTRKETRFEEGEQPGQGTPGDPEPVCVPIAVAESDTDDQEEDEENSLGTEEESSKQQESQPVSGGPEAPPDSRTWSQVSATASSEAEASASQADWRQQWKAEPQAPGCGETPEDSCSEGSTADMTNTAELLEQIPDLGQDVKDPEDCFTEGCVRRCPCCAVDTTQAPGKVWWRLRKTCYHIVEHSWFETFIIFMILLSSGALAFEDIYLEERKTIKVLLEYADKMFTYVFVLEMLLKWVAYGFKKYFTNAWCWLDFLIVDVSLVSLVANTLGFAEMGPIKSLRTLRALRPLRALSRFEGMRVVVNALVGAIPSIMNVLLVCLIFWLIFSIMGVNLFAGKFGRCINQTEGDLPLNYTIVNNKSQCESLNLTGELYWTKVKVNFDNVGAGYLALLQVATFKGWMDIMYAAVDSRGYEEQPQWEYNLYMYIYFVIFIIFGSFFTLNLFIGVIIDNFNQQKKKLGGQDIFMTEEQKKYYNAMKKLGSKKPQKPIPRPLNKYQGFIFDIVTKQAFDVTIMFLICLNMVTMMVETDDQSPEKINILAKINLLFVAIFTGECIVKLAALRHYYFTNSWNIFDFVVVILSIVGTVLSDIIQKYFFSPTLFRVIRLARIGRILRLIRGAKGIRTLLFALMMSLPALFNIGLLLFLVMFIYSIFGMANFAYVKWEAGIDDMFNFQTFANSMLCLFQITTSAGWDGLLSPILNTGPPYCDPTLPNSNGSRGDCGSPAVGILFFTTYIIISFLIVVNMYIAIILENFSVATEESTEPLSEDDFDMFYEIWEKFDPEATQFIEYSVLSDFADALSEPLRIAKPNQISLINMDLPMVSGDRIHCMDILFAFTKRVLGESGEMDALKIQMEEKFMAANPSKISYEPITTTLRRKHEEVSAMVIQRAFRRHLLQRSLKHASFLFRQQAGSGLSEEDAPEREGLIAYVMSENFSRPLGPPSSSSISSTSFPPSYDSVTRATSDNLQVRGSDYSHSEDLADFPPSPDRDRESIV

| SMILES | CiPA torsadogenic risk category [1] | further results |
| --- | --- | --- |
| CC(C)COCC(CN(Cc1ccccc1)c1ccccc1)N1CCCC1 (stereo not shown) [bepridil] | high risk | – |
| NC(=O)N1c2ccccc2C=Cc2ccccc21 [carbamazepine] | – | IC50 [2]: 79.2 µM |
| CCN(CC)CCCC(C)Nc1ccnc2cc(Cl)ccc12 (stereo not shown) [chloroquine] | – | change of apparent IC50 on peak Na+ current at physiological vs. room temperature [3]: approximately four-fold reduction |
| CN(C)CCCN1c2ccccc2Sc2ccc(Cl)cc21 [chlorpromazine] | intermediate risk | – |
| COc1cc(N)c(Cl)cc1C(=O)NC1CCN(CCCOc2ccc(F)cc2)CC1OC (stereo not shown) [cisapride] | intermediate risk | – |
| CN(CCOc1ccc(NS(C)(=O)=O)cc1)CCc1ccc(NS(C)(=O)=O)cc1 [dofetilide] | high risk | – |
| CCN(CCO)CCCC(C)Nc1ccnc2cc(Cl)ccc12 (stereo not shown) [hydroxychloroquine] | – | change of apparent IC50 on peak Na+ current at physiological vs. room temperature [3]: more than a two-fold reduction |
| Nc1nnc(-c2cccc(Cl)c2Cl)c(N)n1 [lamotrigine] | – | IC50 [2]: 119 µM |
| Cc1cccc(C)c1OCC(C)N (stereo not shown) [mexiletine] | low risk | – |
| Cc1nccn1CC1CCc2c(c3ccccc3n2C)C1=O (stereo not shown) [ondansetron] | intermediate risk | – |
| C=C[C@H]1C[N@@]2CC[C@H]1C[C@@H]2[C@@H](O)c1ccnc2ccc(OC)cc12 [quinidine] | high risk | – |
| COc1ccccc1OCC(O)CN1CCN(CC(=O)Nc2c(C)cccc2C)CC1 (stereo not shown) [ranolazine] | low risk | – |
| Nc1nc2ccc(OC(F)(F)F)cc2s1 [riluzole] | – | IC50 [2]: 2 µM |
